Assay results published in patent publication US20050020544A1, “Bicyclic CB2 cannabinoid receptor ligands” (priority 2002, published 2005).
pIC50: −log10 of the molar value.

Assays:
human CB1 receptor = molecular target: T1, human CB1 receptor (Homo sapiens, UniProt P21554); assay: Adenylylcyclase assay: forskolin-activated cAMP in CB1 transfected HEK-293 cells; type: cell-based
T1 construct: purchased Perkin Elmer/NEN; host or cells: HEK-293 cells, stably transfected (membranes)
Description: Cannabinoids and derivatives bind to G-protein-coupled CB1 and CB2 receptors and exert their activity via the inhibition of adenylylcyclase activity. An adenylylcyclase assay forms a basis for the functional analysis of the compounds by determining their capacity to inhibit or promote forskolin-activated cAMP production. The assay is carried out according to Chin et al. (Chin, C. N. et al., J. Neurochem. 70: 366-73, 1998). Briefly, HEK-293 human kidney cells (ATCC#CRL-1573) stably transfected with either the human CB1 or CB2 receptor (cDNA) were grown in DMEM supplemented with 10% fetal calf serum, 1% Penicillin-Streptomycin and 2 mM L-glutamine. Cells were seeded in 24 wells plate at 5×10^4 cells/well and incubated for 48 hours. Medium was then removed and the adherent cells were washed with PBS. Two hundred μl of serum free medium supplemented with 0.2 mM Ro 20-1724, 0.25% BSA, and 20 mM HEPES was then added to each well. The cells were then activated with 1 μM forskolin in presence of the bicyclic test compounds in concentrations ranging from 10 pM up to 1 μM. The activated cells were then incubated at 37° C. for 20 minutes and the reaction terminated with 1.2 M HCl to a final concentration of 0.1 M. Cells were lyzed by freeze and thaw and the lysate was neutralized with 2 M HEPES, pH 7.5. cAMP was measured in 50 μl aliquots using the [^3H]-cAMP assay system (Amersham).
This experiment was first performed on CB2 receptor transfected cells.

adult male ICR mice = assay: Ear edema model (Croton oil); type: in vivo, mouse; conditions: 3 hours after Croton oil
Description: The anti-inflammatory activity of the novel bicyclic CB2 ligands was screened in vivo using an ear edema model in mice. This test system utilizes various inflammation inducers, including Croton oil (CO) and Arachidonic acid (AA) and the outcome is assessed by measuring ear tissue swelling. […] The ability of the test compounds to prevent or diminish the inflammatory response to these stimulants is indicative of their systemic anti-inflammatory capability.
Compound A was dissolved in CREMOPHOR EL®:ethanol and injected i.p. in adult male ICR mice (30 g average body weight, Harlan, Israel) after dilution with sterile 0.9% sodium chloride to desired final concentrations according to required doses. Various doses of compounds were checked ranging from 0 to 30 mg/kg. Each treatment group was composed of 8-10 animals while the vehicle treated group was composed of 16 animals. […] Ear thickness was determined (in 0.01 mm units) 3 hours after CO application using a dial thickness gauge (Mitutoyo, Japan). Finally the ears were trimmed, an ear punch of 6 mm diameter was removed and its weight was measured. The ear edema is expressed as the ratio of ear punch weight of the CO treated ear versus the contralateral Acetone treated ear. Results are calculated as % inhibition as compared to CREMOPHOR EL®:ethanol vehicle treated animals.

Lewis rats = type: in vivo, rat
Description: Various animal models of autoimmune encephalomyelitis are known in the art, depending on the method of induction, the strain of the animal and the antigen employed to induce the disease. The impact of bicyclic CB2 ligands was tested in EAE using Lewis rats in which the onset of disease is observed by the appearance of clinical symptoms about 10 days after induction. The disease progress and the clinical score increase and peak around day 15 and spontaneous recovery is observed around day 18 after induction of the disease. The animals (at least 9 per test group at initiation of study, except for the untreated control group that comprised only 5 rats) were maintained on a 12 hours light/12 hours dark regimen, at a constant temperature of 22° C., with food and water ad libitum. EAE was induced in these animals by immunization with s.c. injection to the hind paws of 25 μg of purified guinea pig myelin basic protein (MBP, Sigma) emulsified in 0.1 ml of Complete Freund's Adjuvant (Difco).
Methylprednisolone was used as positive control and it was administered daily for 5 consecutive days i.v. at 30 mg/kg starting from day of disease induction by MBP injection. The results are recorded as clinical score; score of 0 indicates a normal animal with no clinical signs, 0.5 indicates a loss of tonicity in the tail's distal part, 1 indicates whole tail paralysis, 2 indicates paraplegia, 3 indicates quadriplegia, 4 indicates complete body paralysis and moribund state and 5 indicates death. The clinical score of the animals is recorded for 11 days following onset of disease and the area under the curve (AUC) is calculated over this period of time.
Moreover, in a separate study animals were euthanized 15 days after induction of the disease by i.p. injection of 100 mg/kg pentobarbital. Brains and spinal cord were removed and were fixed by overnight incubation with 4% Paraformaldehyde. The cervical segment of the spinal cord was dehydrated using ethanol solutions of increasing concentration and then embedded in paraplast. The spinal cord was then sectioned (10 μm) and staining was performed using hematoxylin and eosin. The stained slides were examined under light microscopy for foci of infiltrating lymphocytes. Number of foci were counted and averaged in 6 sections for each animal. Three groups of at least 4 animals each were tested in this system: untreated, vehicle treated, and animals treated with 0.5 mg/kg of compound A. Results are expressed as average±SD of number of foci.

T1 sequence (P21554 whole entry): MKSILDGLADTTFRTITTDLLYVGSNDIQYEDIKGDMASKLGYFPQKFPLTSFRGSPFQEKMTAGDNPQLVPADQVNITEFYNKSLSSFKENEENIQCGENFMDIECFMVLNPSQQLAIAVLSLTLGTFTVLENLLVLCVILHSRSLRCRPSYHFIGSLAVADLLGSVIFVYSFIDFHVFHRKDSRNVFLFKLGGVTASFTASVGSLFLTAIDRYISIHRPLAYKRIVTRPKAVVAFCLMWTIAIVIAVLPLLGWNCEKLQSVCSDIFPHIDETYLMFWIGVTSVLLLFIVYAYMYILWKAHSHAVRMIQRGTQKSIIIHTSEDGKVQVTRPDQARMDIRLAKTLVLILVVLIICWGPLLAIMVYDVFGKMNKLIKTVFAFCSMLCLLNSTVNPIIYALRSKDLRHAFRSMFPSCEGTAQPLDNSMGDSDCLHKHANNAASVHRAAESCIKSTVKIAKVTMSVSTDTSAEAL

CCCCCCC(C)(C)c1cc(O)c(C2CC(=O)C3CC2C3(C)C)c(O)c1 (single isomer, unassigned; (-)) [Compound A, (−)-4-[4-(1,1-Dimethyl-heptyl)2,6-dihydroxy-phenyl]-6,6-dimethyl-bicyclo[3.1.1)heptan-2-one]
pIC50 (human CB1 receptor): 7.99
inhibition at 1 µM (human CB1 receptor; HEK293, CB1 transfected HEK-293, 1 μM forskolin, read-out: maximal inhibition at 1 μM): 69%
ED50 (adult male ICR mice; Mus musculus, ip): 30 mg/kg
ED50 ear edema (adult male ICR mice; i.p.): 81 µmol/kg
decrease of infiltration (Lewis rats; 0.5 mg/kg, 15 days after induction): more than 50%
number of infiltration foci in spinal cord (Lewis rats; 0.5 mg/kg, 15 days after induction, average±SD): 10±5 foci/section
reduction in the clinical score (Lewis rats; 1 mg/kg, independent blinded repeat): 30%
reduction in the AUC of the clinical score (Lewis rats; 1 mg/kg, three consecutive days from onset of disease): 35%
therapeutic index (Lewis rats; EAE, 1 mg/kg versus tolerated 40 mg/kg): at least 40
